# Measurements published in ChEMBL document CHEMBL1201862, “PubChem BioAssay data set” (2004).
# Activity calls are given as the source filed them.
# What was measured:
# [1] = target: T1, Heat shock factor protein 1 (Mus musculus, UniProt P38532); experiment: enhancement of HSF1-driven luciferase signal – cell-based, NIH3T3, luminescence, dose retest, confirmation (AID 435004); assay type: functional;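 note: stress induced by proteasome inhibitor MG132 added 30 min after compound; luciferase reporter driven by HSF1 response element in NIH3T3 cells; actives raise luminescence as potentiators of the MG132 stress response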
# T1 sequence (P38532 whole entry): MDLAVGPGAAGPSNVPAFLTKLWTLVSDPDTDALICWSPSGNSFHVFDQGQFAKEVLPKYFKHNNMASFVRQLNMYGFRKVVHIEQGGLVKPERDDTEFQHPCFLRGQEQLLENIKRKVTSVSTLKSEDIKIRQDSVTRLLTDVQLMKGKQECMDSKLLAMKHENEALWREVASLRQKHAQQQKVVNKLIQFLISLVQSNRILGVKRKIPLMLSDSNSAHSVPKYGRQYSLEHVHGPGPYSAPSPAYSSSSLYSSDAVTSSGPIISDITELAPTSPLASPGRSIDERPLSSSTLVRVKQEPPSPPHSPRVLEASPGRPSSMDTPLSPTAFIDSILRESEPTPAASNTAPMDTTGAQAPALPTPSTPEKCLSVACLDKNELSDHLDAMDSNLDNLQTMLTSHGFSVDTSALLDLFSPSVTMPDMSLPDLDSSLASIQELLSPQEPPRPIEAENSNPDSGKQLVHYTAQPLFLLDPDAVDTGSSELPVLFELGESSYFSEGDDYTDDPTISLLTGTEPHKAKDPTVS
# Cytochrome P450 2C19 = Cytochrome P450 2C19 (Homo sapiens, UniProt P33261); experiment: Cytochrome panel assay with activity outcomes. Panel member name: p450-cyp2c19 Compounds with AC50 equal or less than 10 uM are considered active; assay type: functional
# Cytochrome P450 1A2 = target: T2, Cytochrome P450 1A2 (Homo sapiens, UniProt P05177);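 note: PubChem cytochrome P450 panel assay, CYP1A2 panel member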
# T2 sequence (P05177 whole entry): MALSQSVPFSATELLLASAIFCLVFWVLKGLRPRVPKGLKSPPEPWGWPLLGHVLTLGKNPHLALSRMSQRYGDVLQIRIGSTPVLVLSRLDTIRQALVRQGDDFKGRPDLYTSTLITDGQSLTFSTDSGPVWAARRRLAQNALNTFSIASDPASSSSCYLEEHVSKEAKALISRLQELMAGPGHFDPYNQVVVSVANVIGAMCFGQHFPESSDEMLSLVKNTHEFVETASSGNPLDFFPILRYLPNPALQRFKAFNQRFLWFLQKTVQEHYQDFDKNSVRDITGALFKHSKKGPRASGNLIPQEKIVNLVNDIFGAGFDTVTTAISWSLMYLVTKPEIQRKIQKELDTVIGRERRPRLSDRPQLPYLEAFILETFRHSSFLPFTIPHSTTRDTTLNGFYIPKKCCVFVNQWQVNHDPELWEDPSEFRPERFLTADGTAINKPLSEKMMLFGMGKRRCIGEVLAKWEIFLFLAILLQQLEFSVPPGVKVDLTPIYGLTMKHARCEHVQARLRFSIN
# INS1 = experiment: INS-1E survival protection against cytokine death – cell-based, luminescence, retest, dose response (AID 449756); assay type: functional; conditions: Rattus norvegicus;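 note: cell death triggered by IL-1 beta plus TNF-alpha plus IFN-gamma mixture; protective hits raise ATP signal compared with cytokine alone wells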
# [2] = target: T3, Rac GTPase-activating protein 1 (Homo sapiens, UniProt Q9H0H5); experiment: blockers of MgcRacGAP-driven Rac1 GTP hydrolysis – biochemical, ADP Hunter fluorescence, primary and confirmatory, confirmation (AID 624330); assay type: functional
# T3 sequence (Q9H0H5 whole entry): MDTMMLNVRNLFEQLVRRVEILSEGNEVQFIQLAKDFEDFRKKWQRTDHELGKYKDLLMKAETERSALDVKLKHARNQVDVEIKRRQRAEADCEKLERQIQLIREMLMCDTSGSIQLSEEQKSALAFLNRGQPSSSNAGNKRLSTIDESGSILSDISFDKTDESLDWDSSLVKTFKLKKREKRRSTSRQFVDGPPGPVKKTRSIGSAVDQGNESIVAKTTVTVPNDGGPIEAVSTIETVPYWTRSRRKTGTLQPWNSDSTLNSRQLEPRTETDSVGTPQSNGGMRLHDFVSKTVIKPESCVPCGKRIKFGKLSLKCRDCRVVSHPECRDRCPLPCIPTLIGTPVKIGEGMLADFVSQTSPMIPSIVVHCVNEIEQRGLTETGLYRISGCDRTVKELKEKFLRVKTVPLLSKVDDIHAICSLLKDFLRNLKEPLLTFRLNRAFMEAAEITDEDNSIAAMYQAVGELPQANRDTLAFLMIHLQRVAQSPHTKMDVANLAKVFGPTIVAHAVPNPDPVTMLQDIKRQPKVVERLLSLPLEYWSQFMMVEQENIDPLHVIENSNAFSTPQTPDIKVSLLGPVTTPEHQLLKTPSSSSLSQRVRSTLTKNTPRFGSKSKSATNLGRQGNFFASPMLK
# Cytochrome P450 2C9 = Cytochrome P450 2C9 (Homo sapiens, UniProt P11712)
# [3] = luciferase reporter signal suppression in cells – H4 neuroglioma cells, luminescence, dose response (AID 1990); assay type: functional, cell-based
# [4] = alpha-synuclein stem-loop luciferase translation blockers – H4 neuroglioma cells, luminescence, confirmation (AID 1988); assay type: functional, cell-based
# [5] = Luminescence Cell-Based Dose Response HTS to Identify Inhibitors of 5'UTR Stem-Loop Driven Prion Protein mRNA Translation in H4 Neuroglioblastoma Cells. [Related pubchem assays: 1827 (Project Summary), 1813 (Primary HTS)]; assay type: functional
# [6] = viability of uninfected HEp-2 cells – cell-based, HTS, cytotoxicity control for RSV inhibitor project, dose response (AID 2410); assay type: functional; conditions: human respiratory syncytial virus
# Cytochrome P450 3A4 = Cytochrome P450 3A4 (Homo sapiens, UniProt P08684);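 note: CYP3A4 tested as one member of a cytochrome P450 panel screen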
# H4 = experiment: Luminescence Cell-Based Dose Response HTS to Identify Activators of 5'UTR Stem-Loop Driven Prion Protein mRNA Translation in H4 Neuroglioblastoma Cells. [Related pubchem assays: 1829 (Project Summary), 1814 (Primary HTS)]; assay type: functional; conditions: Homo sapiens
# [7] = target: T4, Corticotropin-releasing factor receptor 2/Corticotropin-releasing factor-binding protein (Homo sapiens, UniProt P24387+Q13324); experiment: activators of CRF receptor 2 with binding protein – uHTS hits, confirmation (AID 602473); assay type: functional; conditions: read-out: EC50_Mean
# T4 sequence (Q13324 whole entry): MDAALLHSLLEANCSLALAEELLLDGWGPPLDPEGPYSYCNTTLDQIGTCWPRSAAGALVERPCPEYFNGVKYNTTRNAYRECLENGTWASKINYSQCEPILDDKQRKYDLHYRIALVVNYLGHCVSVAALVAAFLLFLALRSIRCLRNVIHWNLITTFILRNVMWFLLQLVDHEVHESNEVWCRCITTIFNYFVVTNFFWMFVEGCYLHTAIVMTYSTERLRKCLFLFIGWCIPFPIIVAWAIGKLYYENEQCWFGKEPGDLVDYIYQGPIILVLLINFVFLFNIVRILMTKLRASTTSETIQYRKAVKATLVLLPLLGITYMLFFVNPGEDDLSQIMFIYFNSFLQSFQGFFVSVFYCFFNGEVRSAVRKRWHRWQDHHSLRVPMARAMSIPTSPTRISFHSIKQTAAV
# T4 sequence (P24387 whole entry): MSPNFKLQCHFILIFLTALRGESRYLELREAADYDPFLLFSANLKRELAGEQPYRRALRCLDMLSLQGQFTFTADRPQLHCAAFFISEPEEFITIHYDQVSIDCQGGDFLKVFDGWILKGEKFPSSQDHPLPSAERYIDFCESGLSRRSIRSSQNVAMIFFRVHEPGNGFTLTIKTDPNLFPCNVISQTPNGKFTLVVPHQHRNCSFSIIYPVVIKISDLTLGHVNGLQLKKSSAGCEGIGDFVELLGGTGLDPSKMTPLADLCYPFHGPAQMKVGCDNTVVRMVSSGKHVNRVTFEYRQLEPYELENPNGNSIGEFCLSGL
# Chain of Cytochrome P450 2C19 (P33261 whole entry): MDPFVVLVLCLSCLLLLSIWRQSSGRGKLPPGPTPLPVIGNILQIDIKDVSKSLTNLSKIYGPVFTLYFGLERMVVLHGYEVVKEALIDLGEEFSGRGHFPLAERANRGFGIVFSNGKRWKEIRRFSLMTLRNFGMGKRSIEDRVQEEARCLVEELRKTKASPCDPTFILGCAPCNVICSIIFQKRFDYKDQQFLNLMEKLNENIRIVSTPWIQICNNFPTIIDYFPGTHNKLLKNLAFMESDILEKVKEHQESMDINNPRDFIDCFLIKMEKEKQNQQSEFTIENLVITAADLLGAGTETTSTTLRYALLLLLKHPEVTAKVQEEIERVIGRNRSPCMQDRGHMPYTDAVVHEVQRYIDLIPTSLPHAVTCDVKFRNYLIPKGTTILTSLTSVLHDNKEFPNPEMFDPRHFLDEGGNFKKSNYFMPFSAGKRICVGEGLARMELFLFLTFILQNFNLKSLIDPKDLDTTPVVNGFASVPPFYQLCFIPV
# Chain of Cytochrome P450 2C9 (P11712 whole entry): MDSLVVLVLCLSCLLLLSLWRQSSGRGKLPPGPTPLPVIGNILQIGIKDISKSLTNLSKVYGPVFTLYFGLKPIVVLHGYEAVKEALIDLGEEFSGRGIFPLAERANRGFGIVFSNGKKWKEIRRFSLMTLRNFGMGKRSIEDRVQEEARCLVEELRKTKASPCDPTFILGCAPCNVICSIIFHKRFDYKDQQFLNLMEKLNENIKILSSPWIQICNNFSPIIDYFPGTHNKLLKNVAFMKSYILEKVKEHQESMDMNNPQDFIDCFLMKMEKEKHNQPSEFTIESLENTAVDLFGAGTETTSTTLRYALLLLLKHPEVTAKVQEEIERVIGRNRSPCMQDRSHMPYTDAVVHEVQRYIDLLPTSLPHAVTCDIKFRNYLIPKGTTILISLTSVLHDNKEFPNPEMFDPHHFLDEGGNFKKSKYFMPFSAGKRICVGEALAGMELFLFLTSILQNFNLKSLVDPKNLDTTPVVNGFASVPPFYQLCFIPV
# Chain of Cytochrome P450 3A4 (P08684 whole entry): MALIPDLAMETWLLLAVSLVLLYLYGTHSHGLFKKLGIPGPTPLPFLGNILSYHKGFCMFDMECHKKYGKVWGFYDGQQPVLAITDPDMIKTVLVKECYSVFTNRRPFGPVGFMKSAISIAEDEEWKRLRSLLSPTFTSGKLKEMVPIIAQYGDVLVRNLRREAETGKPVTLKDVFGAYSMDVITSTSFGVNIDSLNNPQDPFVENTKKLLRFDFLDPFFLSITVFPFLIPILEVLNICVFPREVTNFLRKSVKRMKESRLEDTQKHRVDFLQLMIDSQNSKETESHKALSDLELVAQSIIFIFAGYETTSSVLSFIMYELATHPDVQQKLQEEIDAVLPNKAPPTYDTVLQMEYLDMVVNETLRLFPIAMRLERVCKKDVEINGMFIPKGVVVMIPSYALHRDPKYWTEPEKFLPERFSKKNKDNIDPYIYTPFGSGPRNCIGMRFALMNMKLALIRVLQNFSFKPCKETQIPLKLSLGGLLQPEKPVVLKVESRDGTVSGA
smiles,measurement,setting,value
CCn1c(SCC(=O)c2ccc(Cl)cc2)nnc1-c1ccoc1C,EC50,[1],> 260 µM (inactive)
NCCSc1nc(-c2ccccc2)c(-c2ccccc2)o1,AC50,Cytochrome P450 2C19; read-out: AC50,0.00794 µM (inconclusive)
same,AC50,Cytochrome P450 1A2,3.16 µM (inconclusive)
Cc1ccc([N+](=O)[O-])c(OCCN2CCCCCC2)c1,AC50,INS1,4.9 µM (active)
Nc1ccc2c(c1)Nc1ccccc1CC2,IC50,[2],27.2 µM (active)
Nc1nc(N)c(/N=N\c2ccc(C(=O)O)c(O)c2)c(N)n1,AC50,Cytochrome P450 2C19; read-out: AC50,0.631 µM (inconclusive)
O=C(c1cccs1)N1CCN(C(=O)C(c2ccccc2)c2ccccc2)CC1,AC50,Cytochrome P450 2C19; read-out: AC50,25.1 µM (inconclusive)
Cc1cc2nnc(SCC(=O)N3CCN(c4ccccc4)CC3)n2c(N)n1,AC50,Cytochrome P450 2C19,inconclusive
same,AC50,Cytochrome P450 2C9,25.1 µM (inconclusive)
O=C(NCCn1cccn1)C1CCC(=O)N(CCc2cccc(F)c2)C1 (configuration not stated),EC50,[1],> 260 µM (inactive)
O=C(CSc1ccc(Cl)cc1)Nc1ccc(N2CCN(C(=O)c3ccc(Cl)cc3)CC2)cc1,AC50,Cytochrome P450 2C19; read-out: AC50,14.1 µM (inconclusive)
Cc1ccc(S(=O)(=O)n2c(=O)oc3ccccc32)cc1,EC50,[1],> 260 µM (inactive)
COc1ccc(CNC(=O)C(c2ccc(C)o2)N(C(=O)c2csnn2)c2ccc(C(C)C)cc2)cc1 (configuration not stated),EC50,[1],73.7 µM (active)
CCCCn1cnc2c(oc3nc4c(cc32)CCCC4)c1=O,EC50,[1],> 260 µM (inactive)
Cc1c(Cl)cccc1NC(=O)CCC(=O)NNC(=O)c1ccco1,AC50,Cytochrome P450 2C19,inconclusive
COc1ccc(CN(C)CCc2ccccn2)c(OC)c1OC,IC50,[2],134 µM (active)
O=C1N=C(N2CCOCC2)S/C1=C\c1ccccc1OS(=O)(=O)c1ccccc1,EC50,[3],14.8 µM (active)
same,EC50,[4],> 120 µM (not active)
same,EC50,[5],> 120 µM (not active)
COc1cc(CNc2ccc3[nH]c(O)nc3c2)ccc1OCc1cccc(C)c1,IC50,[2],236 µM (active)
COc1ccc(CC(=O)Nc2cc3oc4ccccc4c3cc2OC)cc1,CC50,[6],> 50 µM (active)
O=C(NCc1nnc(S)n1-c1ccccc1)c1ccc(S(=O)(=O)N2CCOCC2)cc1,AC50,Cytochrome P450 2C19; read-out: AC50,25.1 µM (inconclusive)
same,AC50,Cytochrome P450 3A4,31.6 µM (inconclusive)
same,AC50,Cytochrome P450 2C9,14.1 µM (inconclusive)
Cc1nc(N2CCN(S(=O)(=O)c3ccc(F)cc3)CC2)c2c(-c3cccs3)csc2n1,CC50,[6],16.8 µM (active)
COCC(C)NCc1ccc(OC)c(Br)c1 (configuration not stated),IC50,[2],167 µM (active)
Cc1cccn2c(=O)c3c(nc12)N1CCC(Cc2ccccc2)CC1C1(C3)C(=O)N(C)C(=O)N(C)C1=O (configuration not stated),EC50,[1],> 260 µM (inactive)
COc1ncc2nc(-c3cn(C)c4ccccc34)c(=O)n(C)c2n1,AC50,Cytochrome P450 2C19,inconclusive
CNc1nc(Nc2ccc(C)c(Cl)c2)nc(N)c1[N+](=O)[O-],EC50,[1],82.2 µM (active)
O=C(O)CSc1nnnn1-c1ccc2c(c1)OCCO2,EC50,[1],> 260 µM (inactive)
COc1ccc(F)cc1C(=O)C1CCCN(C(=O)c2ccccc2N(C)C)C1 (configuration not stated),CC50,[6],28.1 µM (active)
O=C(c1cc(C(F)(F)F)cc(C(F)(F)F)c1)N1CCC2(CCCN(Cc3nccs3)C2)CC1,AC50,Cytochrome P450 2C19,inconclusive
COC(=O)[C@H]1C[C@@H]1[C@H](NC(=O)c1cc(C)nn1C)c1ccccc1,AC50,Cytochrome P450 2C19; read-out: AC50,15.8 µM (inconclusive)
Nc1c(C(=O)Nc2ccccc2Cl)nnn1-c1ccc2c(c1)OCCO2,EC50,H4,> 120 µM (not active)
CCOC(=O)c1ccc(NC(=S)N2CCSC2c2ccc(Cl)cc2)cc1 (configuration not stated),CC50,[6],16.9 µM (active)
same,EC50,[7],4.71 µM (active)
CCOc1ccc(S(=O)(=O)N2CCCCC2)cc1NC(=O)CN1CCCC1c1cccs1 (configuration not stated),AC50,INS1,4.23 µM (active)
Cc1cc(C)c(OCCCCN(C)Cc2ccccc2)c(C)c1,IC50,[2],120 µM (active)
CCOC(=O)C(NC(=O)CC)(Nc1sc2c(c1C(=O)OC)CCN(C)C2)C(F)(F)F (configuration not stated),AC50,Cytochrome P450 2C19; read-out: AC50,2.51 µM (inconclusive)
same,AC50,Cytochrome P450 1A2,10 µM (inconclusive)
same,AC50,Cytochrome P450 2C9,15.8 µM (inconclusive)
Cc1occc1C(=O)NNS(=O)(=O)c1ccc([N+](=O)[O-])cc1,EC50,[1],> 260 µM (inactive)
O=C(NCc1cccc(F)c1)c1cccc2c1C(=O)c1ccc(N3CCCC3)cc1S2(=O)=O,EC50,[7],6.84 µM (active)
COc1ccccc1N1CCN(C2CCCCC2NS(=O)(=O)c2ccc(Cl)cc2)CC1 (configuration not stated),EC50,[7],4.3 µM (active)
CCOC(=O)Cn1nnc(-c2cccc(OC)c2)n1,EC50,[1],> 260 µM (inactive)
CC/C(=N\CCc1c(C)[nH]c2ccccc12)C1=C(O)CC(c2ccccc2)CC1=O (configuration not stated),EC50,[3],> 30 µM (not active)
same,EC50,[4],> 120 µM (not active)
same,EC50,[5],11.7 µM (active)
C[C@H]1[C@@H](OC(=O)CCC(=O)O)O[C@@H]2OC3(C)CC[C@H]4[C@H](C)CC[C@@H]1[C@@]24OO3,EC50,[3],> 120 µM (not active)
same,EC50,[4],> 120 µM (not active)
same,EC50,[5],> 120 µM (not active)
O=c1c(-c2cccc(Cl)c2)c[nH]n1-c1ccccc1,IC50,[2],59.6 µM (active)
COc1ccc(/C=N/n2cncn2)cc1COc1ccc(NC(C)=O)cc1,EC50,[1],> 260 µM (inactive)
CCCCOc1ccc(CNC(=S)N/N=C/c2ccc(OC)c(OC)c2)cc1,CC50,[6],41.2 µM (active)
COc1cc(/C=N/n2c(S)nnc2-c2cc(C)[nH]n2)cc(OC)c1O,IC50,[2],69.3 µM (active)
COc1ccc(/C=N/N2CCN(C)CC2)cc1O,IC50,[2],39.2 µM (active)
CCN(CC)c1ccc(/C=N/N(c2ccccc2)c2ccccc2)c(O)c1,AC50,INS1,5.2 µM (active)
